We go through 26 compounds from US20020136733A1, “Malaria peptides” (priority 1994, published 2002).

Marks after values point to notes of the source that are not given here. Residues, ends and D or L forms follow the SMILES beside them.

T2 sequence (P61769 21-119): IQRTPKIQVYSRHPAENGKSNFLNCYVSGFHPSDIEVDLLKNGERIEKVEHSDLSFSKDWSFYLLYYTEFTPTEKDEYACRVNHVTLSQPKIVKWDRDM
T2 sequence (P01889 25-362): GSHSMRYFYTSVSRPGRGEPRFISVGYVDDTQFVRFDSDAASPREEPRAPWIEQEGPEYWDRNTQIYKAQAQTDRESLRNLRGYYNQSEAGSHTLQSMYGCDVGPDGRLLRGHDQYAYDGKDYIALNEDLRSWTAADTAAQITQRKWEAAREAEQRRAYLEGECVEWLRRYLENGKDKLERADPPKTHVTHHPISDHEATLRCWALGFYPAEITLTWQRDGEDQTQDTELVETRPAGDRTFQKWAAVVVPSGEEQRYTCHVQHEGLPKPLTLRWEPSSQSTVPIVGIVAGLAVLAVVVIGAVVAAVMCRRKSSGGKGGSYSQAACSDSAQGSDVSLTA

The first series deals with T1, HLA-A2 (Homo sapiens, UniProt P04439, D140Y/D185E/D98H/E176V/E277Q/G131W/G231S/I119V/I121R/I166T/I218V/L300P/L318F/N151K/N90K/P208A/P217A/Q86G/Q94H/R138H/R169H/T345S).
T1 construct: using the untransfected T2 cell line (for HLA-A2); endogenous in cells; host or cells: untransfected T2 cell line
Put plainly: HLA assembly assay, binding to HLA-A2 (untransfected T2 cell line).
Conditions: not given
An excerpt:
(§1) We have recently described a novel approach to identifying CTL epitopes and potential CTL epitopes in P. falciparum^1. This consisted, in brief, of 1) determining a motif for peptides bound to a particular KLA class I molecules, 2) synthesizing peptides from P. falciparum antigens congruent with this motif, 3) testing whether these peptides bind to that HLA class I allele using a binding assay known as a HLA assembly assay, and 4) testing whether lymphocytes from individuals exposed to malaria could recognise these peptides as epitopes after suitable in vitro restimulation and culture. In that work we identified peptide epitopes and potential peptide epitopes for two HLA class I molecules, HLA-B53 and HLA-B35. Here we extend that work to four further HLA class I molecules: HLA-A2, HLA-B8, HLA-B7 and HLA-B17. 52 peptides are identified that are shown either to be epitopes or potential epitopes for these HLA class I molecules.
(§2) As described previously for identification of HLA-B35 and HLA-B53 epitopes^1, peptides were synthesised to correspond to these four motifs from the primary amino acid sequences of four P. falciparum pre-erythrocytic antigens: CSP, TRAP, LSA-1 and SHEBA. Over one hundred peptides were synthesized. Binding assays^7 were performed on selected peptides to determine whether they bound to HLA-A2, -B7, -B8, or -B58 using the untransfected T2 cell line (for HLA-A2) or the T2 cell line transfected with HLA-B7 (used to assess binding to HLA-B7s), or with HLA-B8 (used to assess binding to HLA-B8), or with HLA-B58 (used to assess binding to HLA-B58).
Consider “GIYKELEDL [ls19, LSA-1 peptide, position 1801, HLA-A2]”, for which the “binding to HLA-A2 in the HLA assembly assay” value (from here on “binding to HLA-A2”) is listed as “bind”.

For “HIFDGDNEI [ls23, LSA-1 peptide, position 1883, HLA-A2]”, the “binding to HLA-A2” value is on record as “bind”.

For ILYISFYFI [ls10], the “binding to HLA-A2” value was “bind”.

In the case of “LLMDCSGSI [tr29, TRAP peptide, position 51, HLA-A2]”, the “binding to HLA-A2” value was “bound”.

For YISFYFILV [ls11], the “binding to HLA-A2” value is on record as “bind”.

The next series concerns the target T2, HLA-B7 (Homo sapiens, UniProt P01889).
T2 construct: expressed in transfected cells; host or cells: T2 cell line
Assay: not given
Conditions: not given
Type of series: binding.
From the text: as §1, §2
Regarding MPLETQLAI [sh6], the “binding to HLA-B7 in the HLA assembly assay” value (“binding to HLA-B7” below) was “bind”.

Still in this series, the particulars now being: T2 cell line transfected with HLA-B7.
For EPAPFDETL [tr15], the “binding to HLA-B7” value was “bind”.

On to GPFMKAVCV [tr21], for which the “binding to HLA-B7” value is recorded as “bind”.

In the case of IPDSIQDSL [tr13], the “binding to HLA-B7” value was “bind”.

As to “IPSLALMLI [sh1, SHEBA peptide, position 7, HLA-B7]”, the “binding to HLA-B7” value was “bind”.

Take “KPIVQYDNF [ls6, LSA-1 peptide, position 1786, HLA-B7]”: the “binding to HLA-B7” value is “bind”.

Consider NPDPNANPNV [cp21], for which the “binding to HLA-B7” value is given as “bind”.

On to “NPENPPNPDI [tr6, TRAP peptide, position 348, HLA-B7]”, for which the “binding to HLA-B7” value was “bind”.

For the next series, the system named is HLA-B8. Put plainly: HLA assembly assay, binding to HLA-B8 (T2 cell line transfected with HLA-B8). Further details: species or system human.
Conditions: not given
From the text: as §1
(§3) As described previously for identification of HLA-B35 and HLA-B53 epitopes^1, peptides were synthesised to correspond to these four motifs from the primary amino acid sequences of four P. falciparum pre-erythrocytic antigens: CSP, TRAP, LSA-1 and SHEBA. Over one hundred peptides were synthesized. […]
Turning to “LRKPKHKKL [cp43, circumsporozoite protein peptide, position 134, HLA-B8]”, the “binding to HLA-B8 in the HLA assembly assay” value is recorded as “bound”.

Another series deals with HLA-B17. Kind of series: HLA assembly assay, binding to HLA-B17 (T2 cell line transfected with HLA-B58). Details: species or system human.
Conditions: not given
From the text: as §1
The peptide binding motifs of HLA-A2, HLA-B7 and HLA-B8 have been described. For HLA-A2 strong preferences were found at positions 2 and 9 of bound peptides: for leucine, isoleucine and methionine at position 2, and for valine, leucine and isoleucine at position 9^3, 4 For HLA-B7 the preferred residues were proline at position 2 and a hydrophobic residue at position 9. Leucine, isoleucine, valine, alanine, phenylalanine and tryptophan were the hydrophobic residues preferred^5. For HLA-B8 preferred residues were found at positions 3, 5 and 9^6. At positions 3 and 5 lysine or arginine are preferred and at position 9, leucine or isoleucine or valine. The motif for peptides bound to HLA-B17 has not been reported so we determined this exactly as described for HLA-B35^1, using instead of the cell line CIR-B35, the cell line CIR-B58.
as §3
As to “CSSVFNVV [cp56, circumsporozoite protein peptide, position 388, HLA-B17]”, the “binding to HLA-B17 in the HLA assembly assay” value (from here on “binding to HLA-B17”) is “bind”.

In the case of “GSANKPKDEL [cp55, circumsporozoite protein peptide, position 364, HLA-B17]”, the “binding to HLA-B17” value was “bind”.

“LSVSSFLFV [cp48, circumsporozoite protein peptide, position 8, HLA-B17]”: the “binding to HLA-B17” value is “bind”.

Another series relates to HLA matched or autologous B cell line targets pre-pulsed with the peptide. Put plainly: CTL chromium release assay with restimulated lymphocytes from malaria-exposed Gambians. Type of series: cell-based, human. The following applies: Gambian adults with HLA-B8 (Z42, Z130, Z80, Z169); 10% or greater specific lysis regarded as significant. The procedure: Peptides shown to bind to a particular HLA class I allele were tested for CTL recognition in assays using lymphocytes from malaria-exposed Gambians, as described previously^1. A minority of peptides, synthesized to correspond to a peptides binding motif were not tested in the relevant assembly assay but tested only for CTL recognition. Cells from 82 adult Gambians and 53 Gambian children, all exposed to malaria, were used in the course of these studies. The children and adults were HLA typed using cellular or molecular techniques as described previously^1. Peptides were incubated with cells either singly, or in pools as described^1 at concentrations of 10-100 μM. Peptides could either be left with the cells for the duration of restimulation (as reported^1) or washed off after an hour. Cells were cultured for 1-3 weeks before a standard CTL chromium release assay^1 was performed using HLA matched or autologous B cell line targets pre-pulsed with the peptide to be tested. Peptides were tested either singly or in pools for CTL recognition.
On to “LRKPKHKKL [cp43, circumsporozoite protein peptide, position 134, HLA-B8]”, for which the “CTL recognition / lysis of peptide-pulsed target cells” value is recorded as “HLA-B8-restricted CTL epitope”.

Staying with this series, now noted: asterisk beside the label in the table; HLA class I molecule.
`CSCC[C@H](N)C(=O)N1CCC[C@H]1C(=O)N[C@@H](CC(N)=O)C(=O)N[C@@H](Cc1ccc(O)cc1)C(=O)N1CCC[C@H]1C(=O)N[C@@H](CC(N)=O)C(=O)N[C@@H](CCCNC(=N)N)C(=O)N[C@@H](CC(N)=O)C(=O)N[C@H](C(=O)O)C(C)C` [cp6.1, MPNYPNRNV] (H-MPNYPNRNV-OH; N-terminus and C-terminus assumed): the “identified as an epitope for a secondary cytotoxic T lymphocyte response” value (shortened to “identified as an epitope”) is given as “cp6.1 *”.

For `CSCC[C@H](N)C(=O)N1CCC[C@H]1C(=O)N[C@@H](CC(N)=O)C(=O)N[C@@H](CC(N)=O)C(=O)N1CCC[C@H]1C(=O)N[C@@H](CC(N)=O)C(=O)N[C@@H](CCCNC(=N)N)C(=O)N[C@@H](CC(N)=O)C(=O)N[C@H](C(=O)O)C(C)C` [cp6.2, MPNNPNRNV] (H-MPNNPNRNV-OH; N-terminus and C-terminus assumed), the “identified as an epitope” value is “cp6.2 *”.

`CC[C@H](C)[C@H](NC(=O)[C@@H](NC(=O)[C@H](CCCCN)NC(=O)[C@H](CC(C)C)NC(=O)[C@@H](N)Cc1ccc(O)cc1)[C@@H](C)O)C(=O)N[C@@H](CCC(N)=O)C(=O)N[C@@H](CC(N)=O)C(=O)N[C@@H](CO)C(=O)N[C@@H](CC(C)C)C(=O)O` [cp36, YLKTIQNSL] (H-YLKTIQNSL-OH; N-terminus and C-terminus assumed): the “identified as an epitope” value was “cp36 *”.

For `CC[C@H](C)[C@H](NC(=O)[C@H](CCCCN)NC(=O)[C@H](CCC(N)=O)NC(=O)[C@H](CC(C)C)NC(=O)[C@@H](N)Cc1ccc(O)cc1)C(=O)N[C@@H](CCC(N)=O)C(=O)N[C@@H](CC(N)=O)C(=O)N[C@@H](CO)C(=O)N[C@@H](CC(C)C)C(=O)O` [cp37, YLQKIQNSL] (H-YLQKIQNSL-OH; N-terminus and C-terminus assumed), the “identified as an epitope” value is listed as “cp37 *”.

As for `CC[C@H](C)[C@H](NC(=O)[C@H](CCCCN)NC(=O)[C@H](CCC(N)=O)NC(=O)[C@H](CC(C)C)NC(=O)[C@@H](N)Cc1ccc(O)cc1)C(=O)N[C@@H](CCCCN)C(=O)N[C@@H](CC(N)=O)C(=O)N[C@@H](CO)C(=O)N[C@@H](CC(C)C)C(=O)O` [cp38, YLQKIKNSL] (H-YLQKIKNSL-OH; N-terminus and C-terminus assumed), the “identified as an epitope” value is recorded as “cp38 *”.

Turning to `CC(C)C[C@H](NC(=O)[C@H](Cc1ccc(O)cc1)NC(=O)[C@H](CCCCN)NC(=O)[C@@H](NC(=O)[C@H](CC(N)=O)NC(=O)CNC(=O)[C@H](CC(C)C)NC(=O)[C@@H](N)Cc1c[nH]cn1)C(C)C)C(=O)N[C@H](C(=O)O)C(C)C` [tr26, HLGNVKYLV] (H-HLGNVKYLV-OH; N-terminus and C-terminus assumed), the “identified as an epitope” value is recorded as “tr26 *”.

With `CC[C@H](C)[C@H](NC(=O)CN)C(=O)N[C@@H](C)C(=O)NCC(=O)NCC(=O)N[C@@H](CC(C)C)C(=O)N[C@@H](C)C(=O)N[C@@H](CC(C)C)C(=O)N[C@@H](CC(C)C)C(=O)O` [tr39, GIAGGLALL] (H-GIAGGLALL-OH; N-terminus and C-terminus assumed), the “identified as an epitope” value was “tr39 *”.

As to `CC(C)C[C@H](NC(=O)[C@H](C)NC(=O)[C@H](CCCCN)NC(=O)[C@H](CCC(=O)O)NC(=O)[C@H](CCCCN)NC(=O)[C@H](CC(N)=O)NC(=O)[C@H](CCCCN)NC(=O)[C@H](CO)NC(=O)[C@H](C)N)C(=O)O` [tr42, ASKNKEKAL] (H-ASKNKEKAL-OH; N-terminus and C-terminus assumed), the “identified as an epitope” value was “tr42 *”.

With `CC[C@H](C)[C@H](NC(=O)[C@@H](NC(=O)[C@H](CC(C)C)NC(=O)[C@H](C)NC(=O)[C@H](CCCCN)NC(=O)[C@H](CCC(=O)O)NC(=O)[C@H](CCCCN)NC(=O)[C@H](CC(N)=O)NC(=O)[C@@H](N)CCCCN)[C@@H](C)CC)C(=O)O` [tr43, KNKEKALII] (H-KNKEKALII-OH; N-terminus and C-terminus assumed), the “identified as an epitope” value was “tr43 *”.
